The results in this text go back to patent US9834542B2, “LXR modulators” (BRISTOL-MYERS SQUIBB COMPANY, priority 2013, dated 2017).

Usually EC50 stands for the concentration needed to bring the measured effect to its halfway point.

In the assay the target is T1, LXRβ (Homo sapiens, UniProt P55055).
T1 construct: Co-transfection expression plasmids, comprising full-length LXRα (pCMX-h LXRα[…] or LXRβ (pCMX-hLXRβ)); expressed in transfected cells; host or cells: CV-1 African Green Monkey Kidney Cells
T1 sequence (P55055 1-460): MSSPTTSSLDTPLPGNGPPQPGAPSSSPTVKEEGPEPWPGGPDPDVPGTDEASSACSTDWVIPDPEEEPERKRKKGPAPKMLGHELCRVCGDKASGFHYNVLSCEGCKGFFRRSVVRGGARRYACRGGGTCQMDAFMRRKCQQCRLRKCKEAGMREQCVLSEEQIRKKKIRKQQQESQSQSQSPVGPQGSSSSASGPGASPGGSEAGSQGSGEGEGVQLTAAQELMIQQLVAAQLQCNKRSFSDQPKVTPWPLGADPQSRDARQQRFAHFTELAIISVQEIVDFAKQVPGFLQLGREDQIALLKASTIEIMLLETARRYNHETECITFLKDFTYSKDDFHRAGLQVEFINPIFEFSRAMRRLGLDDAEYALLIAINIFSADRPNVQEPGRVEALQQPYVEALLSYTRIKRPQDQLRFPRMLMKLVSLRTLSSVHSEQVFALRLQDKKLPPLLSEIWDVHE
T1 sequence (P19793 1-462 partner): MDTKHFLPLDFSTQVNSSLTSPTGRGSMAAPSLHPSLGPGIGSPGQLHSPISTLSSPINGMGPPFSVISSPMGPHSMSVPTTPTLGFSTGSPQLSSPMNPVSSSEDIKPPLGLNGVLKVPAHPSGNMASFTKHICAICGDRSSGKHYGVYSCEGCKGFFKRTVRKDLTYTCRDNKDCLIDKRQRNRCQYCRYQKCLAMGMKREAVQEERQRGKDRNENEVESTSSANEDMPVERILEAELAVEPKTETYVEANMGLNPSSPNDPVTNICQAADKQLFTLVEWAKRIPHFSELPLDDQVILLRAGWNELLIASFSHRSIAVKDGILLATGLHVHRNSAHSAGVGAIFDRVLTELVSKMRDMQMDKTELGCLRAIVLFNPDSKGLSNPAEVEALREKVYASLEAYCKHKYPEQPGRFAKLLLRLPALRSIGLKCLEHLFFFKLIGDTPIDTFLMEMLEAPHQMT
As to the kind of experiment: Co-transfection assay (LXRE luciferase reporter), LXRβ. The format is cell-based. Also noted: % Efficacy: concentration or dose not given beside the values. The settings on record: for EC50: CV-1 cells transfected with pCMX-hLXRβ and LXREx1-Tk-Luciferase, 20 hours incubation; for % Efficacy / Emax: LXRβ co-transfection, relative to high control 1-(2,4-difluorobenzyl)-2-oxo-6-(4-phenoxyphenyl)-4-(trifluoromethyl)-1,2-dihydropyridine-3-carbonitrile; for Emax: read-out: % Efficacy. From the text:
To measure the ability of compounds to activate or inhibit the transcriptional activity of LXR in a cell based assay, the co-transfection assay was used. It has been shown that LXR functions as a heterodimer with RXR. For the co-transfection assay, expression plasmids for LXRα and LXRβ are introduced separately via transient transfection into mammalian cells along with a luciferase reporter plasmid that contains one copy of a DNA sequence that is bound by LXR-RXR heterodimers (LXRE; Willy, P. et. al. 1995). LXRs heterodimerize with the endogenous RXR. Treatment of transfected cells with an LXR agonist increases the transcriptional activity of LXR, which is measured by an increase in luciferase activity.
CV-1 African Green Monkey Kidney Cells
Co-transfection expression plasmids, comprising full-length LXRα (pCMX-h LXRα[…] or LXRβ (pCMX-hLXRβ), reporter plasmid (LXREx1-Tk-Luciferase), and control (pCMX-Galactosidase expression vector) (Willey et al. Genes & Development 9 1033-1045 (1995)).
CV-1 cells were prepared 24 hours prior to the experiment by plating them into T-175 flasks or 500 cm^2 dishes in order to achieve 70-80% confluency on the day of the transfection. The number of cells to be transfected was determined by the number of plates to be screened. Each well of a 384 well plate requires 1.5×10^4 cells. DNA Transfection Reagent was prepared by mixing the required plasmid DNAs with a cationic lipid transfection reagent Transit 2020 (Mirus Bio) for CV1 by following the instructions provided with the reagents. Optimal DNA amounts were determined empirically per cell line and size of vessel to be transfected. For each T175 cm^2 flask a total of 59 ug for CV1 of DNA, 133 uL Transit2020 and 4.5 mL DMEM for CV1 was mixed and added. Cells were then incubated at least 5 hours at 37° C. to prepare screening cells.
Luciferase assay reagent (*Steady-Glo Luciferase Assay System by Promega, CAT#E2550) was prepared by combining before use:
Assay plates were prepared by dispensing 5 μL of compound per well of a 384 well plate to achieve final compound concentration of 10 μM and no more than 0.5% DMSO. Media was removed from the screening cells, the cells trypsinized, harvested cells by centrifugation, counted, and plated at a density of approximately 1.5×10^4 cells in the 384 well assay plate prepared above in a volume of about 95 uL. Assay plates containing both compounds and screening cells (100 μL in total volume) were incubated for 20 hours at 37° C.
After incubation with compounds, media was removed from the cells and luciferase assay reagent (50 μL/well) added. After ˜2 minutes at ambient temperature, the assay plates were read on a luminometer (PE Biosystems Northstar reader with on-board injectors, or Envision(Perkin Elmer) or equivalent).
The LXR/LXRE co-transfection assay can be used to establish the EC50/IC50 values for potency and percent activity or inhibition for efficacy. Efficacy defines the activity of a compound relative to a high control 1-(2,4-difluorobenzyl)-2-oxo-6-(4-phenoxyphenyl)-4-(trifluoromethyl)-1,2-dihydropyridine-3-carbonitrileor a low control (DMSO/vehicle). The dose response curves are generated from a 11 point curve with concentrations differing by ½ LOG units. Each point represents the average of 2 wells of data from duplicate 384 well plate.
The data from this assay is fitted to the following equation, from which the EC50 value may be solved: Y=Bottom+(Top−Bottom)/(1+10^((logEC50-X)*HillSlope)).
The EC50/IC50 is therefore defined as the concentration at which an agonist or antagonist elicits a response that is halfway between the Top (maximum) and Bottom (baseline) values. The EC50/IC50 values represented are the averages of at least 2 and normally 3 independent experiments. […]
For orientation: In a reporter assay the amount or activity of a reporter protein is the signal.

As to `Cc1nc(-c2cc(-c3cccc(S(C)(=O)=O)c3)ccc2-n2cc(C(C)O)nc2C)c(-c2ccc3c(c2)OC(F)(F)O3)o1` (single isomer, unassigned) [Example 372, 1-(1-(3-(5-(2,2-difluorobenzo[d][1,3]dioxol-5-yl)-2-methyloxazol-4-yl)-3′-(methylsulfonyl)-[1,1′-biphenyl]-4-yl)-2-methyl-1H-imidazol-4-yl) ethanol], the EC50 came out at 838 nM and the “% Efficacy” value turned out to be 33%.

Take `Cc1nc(-c2cc(-c3cccc(S(C)(=O)=O)c3)ccc2-n2cc(C(C)O)nc2C)c(-c2ccc3c(c2)OC(F)(F)O3)o1` (single isomer, unassigned) [Example 514, 1-(1-(3-(5-(2,2-difluorobenzo[d][1,3]dioxol-5-yl)-2-methyloxazol-4-yl)-3′-(methylsulfonyl)-[1,1′-biphenyl]-4-yl)-2-methyl-1H-imidazol-4-yl)ethanol]: the response was half-maximal at 3000 nM (EC50) and the “% Efficacy” value is 77%.

Take `Cc1nc(-c2cc(-c3cc(F)c(CO)c(S(C)(=O)=O)c3)ccc2-n2cc(C(C)O)nc2C)c(-c2ccc3c(c2)OC(F)(F)O3)o1` (single isomer, unassigned) [Example 515, 1-(1-(3-(5-(2,2-difluorobenzo[d][1,3]dioxol-5-yl)-2-methyloxazol-4-yl)-3′-fluoro-4′-(hydroxymethyl)-5′-(methylsulfonyl)-[1,1′-biphenyl]-4-yl)-2-methyl-1H-imidazol-4-yl)ethanol]: the response was half-maximal at 1210 nM (EC50) and the “% Efficacy” value was determined as 19%.

Consider `Cc1nc(-c2cc(-c3cc(F)c(CO)c(S(C)(=O)=O)c3)ccc2-n2cc(C(C)O)nc2C)c(-c2ccc3c(c2)OC(F)(F)O3)o1` (single isomer, unassigned) [Example 516, 1-(1-(3-(5-(2,2-difluorobenzo[d][1,3]dioxol-5-yl)-2-methyloxazol-4-yl)-3′-fluoro-4′-(hydroxymethyl)-5′-(methylsulfonyl)-[1,1′-biphenyl]-4-yl)-2-methyl-1H-imidazol-4-yl)ethanol], for which the concentration for a half-maximal effect (EC50) came out at 270 nM and the “% Efficacy” value came to 41%.

In the case of `Cc1nc(C(F)(F)F)c(Cl)n1-c1ccc(-c2cc(F)c(CO)c(S(C)(=O)=O)c2)cc1-n1nncc1-c1ccc(OC(F)(F)F)cc1` [Example 1, {4′-[5-chloro-2-methyl-4-(trifluoromethyl)-1H-imidazol-1-yl]-3-fluoro-5-(methylsulfonyl)-3′-(5-{4-[(trifluoromethyl)oxy]phenyl}-1H-1,2,3-triazol-1-yl)biphenyl-4-yl}methanol], the half-maximal effective concentration (EC50) was determined as 40 nM and the Emax is 116%.

`CS(=O)(=O)c1cccc(-c2ccc(-n3cc(C(F)(F)F)nc3Cl)c(-n3nncc3-c3ccc(Cl)cc3)c2)c1` [Example 2, 5-(4-chlorophenyl)-1-{4-[2-chloro-4-(trifluoromethyl)-1H-imidazol-1-yl]-3′-(methylsulfonyl)biphenyl-3-yl}-1H-1,2,3-triazole]: the EC50 worked out at 680 nM and the Emax turned out to be 80%.

Take `Cc1nc(C(=O)NCC(F)(F)F)cn1-c1ccc(-c2cccc(S(C)(=O)=O)c2)cc1-n1nncc1-c1ccc(OC(F)(F)F)cc1` [Example 3, 2-methyl-1-[3′-(methylsulfonyl)-3-(5-{4-[(trifluoromethyl)oxy]phenyl}-1H-1,2,3-triazol-1-yl)biphenyl-4-yl]-N-(2,2,2-trifluoroethyl)-1H-imidazole-4-carboxamide]: the EC50 turned out to be 1950 nM and the Emax amounted to 74%.

In the case of `Cc1nc(C(F)(F)F)cn1-c1ccc(-c2cccc(S(C)(=O)=O)c2)cc1-n1nncc1-c1ccc(CF)cc1` [Example 4, 5-[4-(fluoromethyl)phenyl]-1-{3′-(methylsulfonyl)-4-[2-methyl-4-(trifluoromethyl)-1H-imidazol-1-yl]biphenyl-3-yl}-1H-1,2,3-triazole], the 50% effective concentration (EC50) is 559 nM and the Emax was found to be 89%.

`Cc1nc(C(F)(F)F)cn1-c1ccc(-c2cccc(S(C)(=O)=O)c2)cc1-n1nncc1-c1ccc(C(F)F)cc1` [Example 5, 5-[4-(difluoromethyl)phenyl]-1-{3′-(methylsulfonyl)-4-[2-methyl-4-(trifluoromethyl)-1H-imidazol-1-yl]biphenyl-3-yl}-1H-1,2,3-triazole]: it took 258 nM to reach a half-maximal effect (EC50) and the Emax was determined as 91%.

Take `Cc1nc(C(F)F)cn1-c1ccc(-c2cccc(S(C)(=O)=O)c2)cc1-n1nncc1-c1ccc(OC(F)(F)F)cc1` [Example 6]: the EC50 worked out at 848 nM and the Emax came to 93%.

`CS(=O)(=O)c1cccc(-c2cc(Cl)c(-n3cnc(C(F)(F)F)c3)c(-n3nncc3-c3ccc(Cl)cc3)c2)c1` [Example 7, 1-(5-chloro-3′-(methylsulfonyl)-4-(4-(trifluoromethyl)-1H-imidazol-1-yl)biphenyl-3-yl)-5-(4-chlorophenyl)-1H-1,2,3-triazole]: it took 408 nM to reach a half-maximal effect (EC50) and the Emax worked out at 55%.

For the compound `Cc1nc(C(F)(F)F)cn1-c1c(F)cc(-c2cccc(S(C)(=O)=O)c2)cc1-n1nncc1-c1ccc(Cl)cc1Cl` [Example 8, 5-(2,4-dichlorophenyl)-1-{5-fluoro-3′-(methylsulfonyl)-4-[2-methyl-4-(trifluoromethyl)-1H-imidazol-1-yl]biphenyl-3-yl}-1H-1,2,3-triazole], the midpoint of the response, the EC50, lay at 143 nM and the Emax is 91%.

`Cc1ccc(C(C)c2cnnn2-c2cc(-c3cc(F)c(CO)c(S(C)(=O)=O)c3)ccc2-n2cc(C(F)(F)F)nc2C)cc1` (centres unmarked) [Example 9, (3-fluoro-3′-{5-[1-(4-methylphenyl)ethyl]-1H-1,2,3-triazol-1-yl}-5-(methylsulfonyl)-4′-[2-methyl-4-(trifluoromethyl)-1H-imidazol-1-yl]biphenyl-4-yl)methanol]: the EC50 was determined as 66 nM and the Emax is 75%.
